Assay type in all cases: cell-based, human
The subject of assay [1] is 19-9-11 shcat-2 and scramble lines. Nature of the assay: RT-PCR/qPCR gene expression in CH-treated 19-9-11 shcat-2 and scramble lines. Here is the method: RT-PCR and Quantitative RT-PCR: Total RNA was prepared with the RNeasy mini kit (QIAGEN) and treated with DNase (QIAGEN). 1 μg RNA was reverse transcribed into cDNA via Oligo (dT) with Superscript III Reverse Transcriptase (Invitrogen). Real-time quantitative PCR was done in triplicate with iQ SYBR Green SuperMix (Bio-Rad). RT-PCR was done with Gotaq Master Mix (Promega) and then subjected to 2% agarose gel electrophoresis. ACTB was used as an endogenous control. To test whether induction of cardiomyocyte differentiation by GSK3 inhibitors requires β-catenin, the inventors treated the shcat-2 and scramble 19-9-11 lines with CH in mTeSR1 medium. While the shcat-2 line maintained an undifferentiated morphology, the scramble line appeared to undergo differentiation (FIG. 2E), similar to non-transduced lines treated with CH (FIGS. 1B and 2B). Induction of differentiation following CH treatment in the scramble control was further indicated by diminished SOX2 and NANOG expression at day 4 (FIG. 3C). […] After 4 days of CH treatment in mTeSR1, the percentage of cells expressing Oct4 decreased to 61% in the scramble line, while 98% of the shcat-2 cells expressed Oct4 (FIG. 3D). […] To better understand early mesoderm induction via GSK3 inhibition, the inventors analyzed expression of the early mesoderm gene T in scramble and shcat-2 19-9-11 lines. As CH concentration increased, the ratio of T expression in scramble to the shcat-2 line increased (FIG. 3E). Less than 2% of shcat-2 cells expressed brachyury upon exposure to different concentrations of CH treatment for 4 days.
On the technique in general: Real-time PCR tracks product formation cycle by cycle.

A further assay relates to 19-9-11 iPSCs. Nature of the assay: Cardiac directed differentiation via small molecules on Matrigel, cTnT/MF20 flow cytometry. The settings on record: 12 μM CH treatment alone, after 15 days. Here is the method:
cardiac directed differentiation via small molecules: Cells were dissociated and plated as described in the Activin/BMP4 protocol. When hPS cells maintained on Matrigel® or Synthemax plates achieved confluence, cells were treated with CH in RPMI/B27-insulin for 24 hr (day 0 to day 1). The medium was changed to RPMI/B27-insulin, followed by 2 μg/ml dox treatment at different times between day 1 and day 5 for transgenic cell lines. For genetically unmodified lines, 5 μM IWP2 (Tocris) or IWP4 (Stemgent) was added at day 3 and removed during the day 5 medium change. Cells were maintained in the RPMI/B27 starting from day 7, with the medium changed every 3 days.
Flow Cytometry: Cells were dissociated into single cells and then fixed with 1% paraformaldehyde for 20 min at room temperature and stained with primary and secondary antibodies in PBS plus 0.1% Triton X-100 and 0.5% BSA. For the cell proliferation assay, a 17-hour pulse of BrdU was performed to identify dividing cardiomyocytes (Zhang et al., Circ. Res. 104, e30-41 (2009)). Data were collected on a FACSCaliber flow cytometer (Beckton Dickinson) and analyzed using FlowJo.
While shRNA inhibition of β-catenin provides specific and facile temporal regulation of canonical Wnt signaling, this method requires genetic modification of the hPS cell line which limits its potential clinical utility. The inventors next used the mechanistic insight these modified lines provided regarding the sufficiency of canonical Wnt signaling in cardiomyogenesis to develop a completely defined, growth factor free method of efficiently generating cardiomyocytes from unmodified hPS cell lines using small molecules. First, 19-9-11 iPSCs were maintained in mTeSR1 on Matrigel® for five days, and then the medium was switched to RPMI/B27-insulin containing 12 μM CH. IWP4 and IWP2, which prevent palmitylation of Wnt proteins by porcupine thereby blocking Wnt protein secretion and activity (Chen et al., Nat. Chem. Biol. 5:100-107 (2009)), were used to inhibit Wnt signaling. […] Similar to results obtained with the 19-9-11 ishcat-1 cell line, CH treatment of 19-9-11 cells alone only generated 16% cTNT+ or MF20+ cells after 15 days, while adding 5 μM IWP4 or IWP2 at day 3 increased this to 87% cTNT+ or MF20+ cells. […] In order to achieve fully defined culture conditions, Matrigel® was replaced with a defined peptide acrylate surface (Synthemax) during both hPS cell expansion and differentiation. […] Thus, optimization of canonical WNT signaling via stage-specific addition of small molecule agonists and antagonists produces high yields of functional cardiomyocytes in a completely defined, growth factor free culture system.
In general terms: In flow cytometry, cells or beads pass a laser one at a time.

Assay [2] deals with 19-9-11 shcat-2 and scramble lines. The assay can be described thus: Nanog/Isl1 immunostaining of CH-treated 19-9-11 shcat-2 and scramble lines. Here is the method: Immunostaining: Cells were fixed with 4% paraformaldehyde for 15 min at room temperature and then stained with primary and secondary antibodies in PBS plus 0.4% Triton X-100 and 5% non-fat dry milk (Bio-Rad). Nuclei were stained with Gold Anti-fade Reagent with DAPI (Invitrogen). An epifluorescence microscope (Leica DM IRB) with a QImaging® Retiga 4000R camera was used for imaging analysis. To test whether induction of cardiomyocyte differentiation by GSK3 inhibitors requires β-catenin, the inventors treated the shcat-2 and scramble 19-9-11 lines with CH in mTeSR1 medium. While the shcat-2 line maintained an undifferentiated morphology, the scramble line appeared to undergo differentiation (FIG. 2E), similar to non-transduced lines treated with CH (FIGS. 1B and 2B). Induction of differentiation following CH treatment in the scramble control was further indicated by diminished SOX2 and NANOG expression at day 4 (FIG. 3C). […] After 4 days of CH treatment in mTeSR1, the percentage of cells expressing Oct4 decreased to 61% in the scramble line, while 98% of the shcat-2 cells expressed Oct4 (FIG. 3D). […] To better understand early mesoderm induction via GSK3 inhibition, the inventors analyzed expression of the early mesoderm gene T in scramble and shcat-2 19-9-11 lines. As CH concentration increased, the ratio of T expression in scramble to the shcat-2 line increased (FIG. 3E). […]

Assay [3] deals with TCF/LEF promoter activity in H9-7TGP cells. Nature of the assay: 7TGP TCF/LEF promoter-reporter (GFP) assay after CH treatment. From the text: In order to probe the activation of canonical Wnt/β-catenin signaling during hPS cell specification to cardiomyocytes, the inventors generated a series of promoter-reporter cell lines in H1 and H9 hESC, and 19-9-11 human iPSC lines. These reporter lines, integrated with a lentiviral 7TGP vector, express GFP under control of a consensus TCF/LEF binding sequence promoter which reports β-catenin activation (FIG. 2A) (Fuerer and Nusse, PLoS One 5:e9370 (2010)). […] Approximately 50% of H9-7TGP cells expressed GFP at 4 days post-addition of 15 μM CH.

Turning to `Cc1c[nH]c(-c2cnc(NCCNc3ccc(C#N)cn3)nc2-c2ccc(Cl)cc2Cl)n1` [CH], the “expression of mesendoderm and early mesoderm genes MIXL1, GSC, T, WNT3A and MSX1” value in assay [1] (12 μM CH for 4 days, scramble versus shcat-2) is “emerged in CH-treated scramble cells but not CH-treated shcat-2 cells”. For the same compound, the “ratio of T expression in scramble to the shcat-2 line” value in assay [1] (increasing CH concentration, 2 days, qPCR) is given as “increased”. Besides, the “SOX2 and NANOG expression” value in assay [1] (scramble control, CH treatment, day 4) was “diminished”; in assay [1] (shcat-2 cells treated with CH), “No significant differences”. Moreover, the “cTNT+ or MF20+ cells” value in the assay with 19-9-11 iPSCs is reported as 16%. The Nanog/Isl1 immunostaining result in assay [2] (scramble cell line, 15 μM CH in mTeSR1 for 4 days) is given as “substantial numbers of Nanog−/Isl1+ cells”; in assay [2] (shcat-2 cells treated with CH) it was “only Nanog+/Isl1− cells”. The “H9-7TGP cells expressing GFP” value in assay [3] (15 μM CH, 4 days post-addition) is “Approximately 50%”. In addition, in assay [3] (H9-7TGP reporter line, CH in mTeSR1 for 4 days), the TCF/LEF promoter activity result is reported as “activated TCF/LEF promoter activity in a CH concentration-dependent manner”.

These data come from US9663764B2, “Generation of cardiomyocytes from human pluripotent stem cells” (Wisconsin Alumni Research Foundation, priority 2011, dated 2017).
